Measured values: patent US20200270309A1, “MALEIMIDE GROUP-MODIFIED ANGIOGENESIS INHIBITOR HM-1 AND USE THEREOF” (NANJING ANJI BIOLOGICAL TECHNOLOGY CO., LTD, priority 2017, published 2020)
Marks after values point to notes of the source that are not given here. Peptide text beside a SMILES is read from it. * marks the point of attachment. X74 = O=C1C=CC(=O)N1c1cccc(CCCCCCCCCCC(=O)*)c1; X59 = O=C1C=CC(=O)N1c1cccc(CCCCCCCCC(=O)*)c1; X66 = O=C1C=CC(=O)N1c1cccc(CCCCCCCC(=O)*)c1; X54 = O=C1C=CC(=O)N1c1cccc(CCCCCCC(=O)*)c1

Legend:
[1] = Half-lives and pharmacokinetic parameters of polypeptides vs HM-1; details: in vivo; for half-life: T1/2β (half-life)
splenic lymphocytes = assay: Proliferation of splenic lymphocytes in mice (ConA, MTT); type: cell-based; details: ConA-stimulated mouse splenic lymphocytes, 48 h
Method in brief: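 Proliferation read as OD 570 nm after 4 h MTT and DMSO solubilisation, five parallel wells. Before that, ConA-stimulated splenic lymphocytes from mice, 5×10^6 cells/mL in 10% calf serum RPMI 1640, were cultured 48 h at 37° C. with different peptide concentrations; controls were blank, ConA alone and dexamethasone.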

[2] = system: xylene-induced ear swelling; assay: Xylene-induced mouse ear swelling; type: in vivo; details: Kunming mice, injected once a day for 5 days; for Swelling degree / Swelling degree (mg): right minus left ear piece weight 2 h after xylene; for Inhibition rate (%): xylene-induced ear swelling
Method in brief: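 Ear pieces punched and weighed 2 h after xylene (0.05 mL, right ear only; left ear as normal) gave swelling degree (right − left weight) and swelling rate (degree/left weight ×100%). Kunming mice received injections daily for 5 consecutive days, xylene applied 1 h after final dose.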

adjuvant arthritis = assay: Rat adjuvant arthritis (AA) animal model; type: in vivo, SD rats; details: 4.0 mg/kg; for Clinical score: intravenous in the tail once every five days from day 10, four paws scored 0-4, max 16, mean±SD; for Joint swelling degree / Left and right paw swelling degree: intravenous in the tail once every five days from day 10, mean±SD
[3] = system: carrageenan-induced toe swelling; assay: Carrageenan-induced toe swelling in rats; type: in vivo; details: SD rats; for Swelling degree 1 h: 1 h after carrageenan; for Swelling degree 3 h: 3 h after carrageenan; for Swelling degree 5 h: 5 h after carrageenan; for Swelling degree 7 h: 7 h after carrageenan
Method in brief: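 Paw swelling, in mL, is the post-inflammation minus pre-inflammation volume of the right hind foot, read as overflow liquid when immersed to a pen-marked joint. Treatment was daily injection over 3 d; model group received saline of the same volume.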

[4] = system: corneal neovascularization; assay: Corneal neovascularization induced by alkali burn in BALB/c mice; type: in vivo; parameters: Inhibition rate (corneal neovascularization): concentration or dose not given beside the values; details: day 14 after alkali burn, vitreous injection once a day for 1 week

C[C@H](NC(=O)CNC(=O)[C@H](CCCNC(=N)N)NC(=O)CCCCCCc1cccc(N2C(=O)C=CC2=O)c1)C(=O)N[C@@H](CC(=O)O)C(=O)N[C@@H](CCCNC(=N)N)C(=O)N[C@@H](C)C(=O)NCC(=O)NCC(=O)NCC(=O)NCC(=O)N[C@@H](CCCNC(=N)N)C(=O)NCC(=O)N[C@@H](CC(=O)O)C(=O)O [X30] (X54-RGADRAGGGGRGD-OH)
AUC(0-inf) [1]: 28300 ± 6880 ng·h/mL | MRT inf [1]: 50.8 ± 10.3 h | clearance [1]: 0.588 mL/min/kg | half-life [1]: 2110 ± 22.2 min | A570 nm/A630 nm (splenic lymphocytes; polypeptide dose 0.05 μM): 0.5725 ± 0.0671 | Inhibition rate (%) (splenic lymphocytes; polypeptide dose 0.05 μM): 15.24% | A570 nm/A630 nm (splenic lymphocytes; polypeptide dose 0.1 μM): 0.4914 ± 0.0652 | Inhibition rate (%) (splenic lymphocytes; polypeptide dose 0.1 μM): 27.24% | A570 nm/A630 nm (splenic lymphocytes; polypeptide dose 0.2 μM): 0.4759 ± 0.0702 | Inhibition rate (%) (splenic lymphocytes; polypeptide dose 0.2 μM): 29.54% | Swelling degree ([2]; dose 2 mg/kg): 5.19 ± 0.57 mg | Inhibition rate (%) ([2]; dose 2 mg/kg): 16.69% | Swelling degree ([2]; dose 4 mg/kg): 5.07 ± 0.49 mg | Inhibition rate (%) ([2]; dose 4 mg/kg): 18.62% | Swelling degree (mg) ([2]; dose 8 mg/kg): 3.77 ± 0.38** mg | Inhibition rate (%) ([2]; dose 8 mg/kg): 39.49% | Clinical score (adjuvant arthritis): 5.73 ± 1.05 | Joint swelling degree (adjuvant arthritis): 0.82 ± 0.12 mm | Left and right paw swelling degree (adjuvant arthritis): 3.76 ± 0.64 mm | Swelling degree 1 h ([3]; 2.0 mg/kg once a day for 3 d): 0.26 ± 0.15 mg | Swelling degree 3 h ([3]; 2.0 mg/kg once a day for 3 d): 0.36 ± 0.18 mg | Swelling degree 5 h ([3]; 2.0 mg/kg once a day for 3 d): 0.40 ± 0.16 mg | Swelling degree 7 h ([3]; 2.0 mg/kg once a day for 3 d): 0.35 ± 0.11 mg | Swelling degree 1 h ([3]; 4.0 mg/kg once a day for 3 d): 0.25 ± 0.19 mg | Swelling degree 3 h ([3]; 4.0 mg/kg once a day for 3 d): 0.33 ± 0.13 mg | Swelling degree 5 h ([3]; 4.0 mg/kg once a day for 3 d): 0.39 ± 0.18 mg | Swelling degree 7 h ([3]; 4.0 mg/kg once a day for 3 d): 0.34 ± 0.15 mg | Inhibition rate (corneal neovascularization) [4]: 47.13% | MVD (corneal microvessel density) [4]: 35.55 ± 5.717

C[C@H](NC(=O)CNC(=O)[C@H](CCCNC(=N)N)NC(=O)CCCCCCCc1cccc(N2C(=O)C=CC2=O)c1)C(=O)N[C@@H](CC(=O)O)C(=O)N[C@@H](CCCNC(=N)N)C(=O)N[C@@H](C)C(=O)NCC(=O)NCC(=O)NCC(=O)NCC(=O)N[C@@H](CCCNC(=N)N)C(=O)NCC(=O)N[C@@H](CC(=O)O)C(=O)O [X31] (X66-RGADRAGGGGRGD-OH)
AUC(0-inf) [1]: 28600 ± 6960 ng·h/mL | MRT inf [1]: 51.3 ± 11.3 h | clearance [1]: 0.582 mL/min/kg | half-life [1]: 2135 ± 18.6 min | A570 nm/A630 nm (splenic lymphocytes; polypeptide dose 0.05 μM): 0.6142 ± 0.0512 | Inhibition rate (%) (splenic lymphocytes; polypeptide dose 0.05 μM): 9.06% | A570 nm/A630 nm (splenic lymphocytes; polypeptide dose 0.1 μM): 0.6134 ± 0.1148 | Inhibition rate (%) (splenic lymphocytes; polypeptide dose 0.1 μM): 9.18% | A570 nm/A630 nm (splenic lymphocytes; polypeptide dose 0.2 μM): 0.5450 ± 0.0838 | Inhibition rate (%) (splenic lymphocytes; polypeptide dose 0.2 μM): 19.31% | Swelling degree (mg) ([2]; dose 4 mg/kg): 4.22 ± 0.51** mg | Inhibition rate (%) ([2]; dose 4 mg/kg): 32.26% | Swelling degree (mg) ([2]; dose 8 mg/kg): 5.18 ± 0.71** mg | Inhibition rate (%) ([2]; dose 8 mg/kg): 49.28% | Clinical score (adjuvant arthritis): 5.74 ± 1.12 | Joint swelling degree (adjuvant arthritis): 0.84 ± 0.12 mm | Left and right paw swelling degree (adjuvant arthritis): 3.72 ± 0.98 mm | Swelling degree 1 h ([3]; 2.0 mg/kg once a day for 3 d): 0.23 ± 0.18 mg | Swelling degree 3 h ([3]; 2.0 mg/kg once a day for 3 d): 0.37 ± 0.12 mg | Swelling degree 5 h ([3]; 2.0 mg/kg once a day for 3 d): 0.38 ± 0.16 mg | Swelling degree 7 h ([3]; 2.0 mg/kg once a day for 3 d): 0.33 ± 0.11 mg | Swelling degree 1 h ([3]; 4.0 mg/kg once a day for 3 d): 0.22 ± 0.12 mg | Swelling degree 3 h ([3]; 4.0 mg/kg once a day for 3 d): 0.36 ± 0.16 mg | Swelling degree 5 h ([3]; 4.0 mg/kg once a day for 3 d): 0.38 ± 0.15 mg | Swelling degree 7 h ([3]; 4.0 mg/kg once a day for 3 d): 0.35 ± 0.14 mg | Inhibition rate (corneal neovascularization) [4]: 45.42% | MVD (corneal microvessel density) [4]: 36.70 ± 5.505

C[C@H](NC(=O)CNC(=O)[C@H](CCCNC(=N)N)NC(=O)CCCCCCCCc1cccc(N2C(=O)C=CC2=O)c1)C(=O)N[C@@H](CC(=O)O)C(=O)N[C@@H](CCCNC(=N)N)C(=O)N[C@@H](C)C(=O)NCC(=O)NCC(=O)NCC(=O)NCC(=O)N[C@@H](CCCNC(=N)N)C(=O)NCC(=O)N[C@@H](CC(=O)O)C(=O)O [X32] (X59-RGADRAGGGGRGD-OH)
AUC(0-inf) [1]: 30900 ± 7750 ng·h/mL | MRT inf [1]: 55.3 ± 11.8 h | clearance [1]: 0.54 mL/min/kg | half-life [1]: 2300 ± 18.6 min | A570 nm/A630 nm (splenic lymphocytes; polypeptide dose 0.05 μM): 0.6117 ± 0.0672 | Inhibition rate (%) (splenic lymphocytes; polypeptide dose 0.05 μM): 9.43% | A570 nm/A630 nm (splenic lymphocytes; polypeptide dose 0.1 μM): 0.5954 ± 0.0678 | Inhibition rate (%) (splenic lymphocytes; polypeptide dose 0.1 μM): 11.84% | A570 nm/A630 nm (splenic lymphocytes; polypeptide dose 0.2 μM): 0.5428 ± 0.0408 | Inhibition rate (%) (splenic lymphocytes; polypeptide dose 0.2 μM): 19.63% | Swelling degree ([2]; dose 2 mg/kg): 5.17 ± 0.06 mg | Inhibition rate (%) ([2]; dose 2 mg/kg): 17.01% | Swelling degree (mg) ([2]; dose 4 mg/kg): 4.83 ± 0.02* mg | Inhibition rate (%) ([2]; dose 4 mg/kg): 22.47% | Swelling degree (mg) ([2]; dose 8 mg/kg): 3.69 ± 0.56** mg | Inhibition rate (%) ([2]; dose 8 mg/kg): 40.77% | Clinical score (adjuvant arthritis): 5.81 ± 1.14 | Joint swelling degree (adjuvant arthritis): 0.81 ± 0.18 mm | Left and right paw swelling degree (adjuvant arthritis): 3.91 ± 0.64 mm | Swelling degree 1 h ([3]; 2.0 mg/kg once a day for 3 d): 0.25 ± 0.18 mg | Swelling degree 3 h ([3]; 2.0 mg/kg once a day for 3 d): 0.35 ± 0.13 mg | Swelling degree 5 h ([3]; 2.0 mg/kg once a day for 3 d): 0.36 ± 0.12 mg | Swelling degree 7 h ([3]; 2.0 mg/kg once a day for 3 d): 0.31 ± 0.17 mg | Swelling degree 1 h ([3]; 4.0 mg/kg once a day for 3 d): 0.24 ± 0.14 mg | Swelling degree 3 h ([3]; 4.0 mg/kg once a day for 3 d): 0.33 ± 0.17 mg | Swelling degree 5 h ([3]; 4.0 mg/kg once a day for 3 d): 0.41 ± 0.15 mg | Swelling degree 7 h ([3]; 4.0 mg/kg once a day for 3 d): 0.35 ± 0.12 mg | Inhibition rate (corneal neovascularization) [4]: 50.25% | MVD (corneal microvessel density) [4]: 33.45 ± 6.453

C[C@H](NC(=O)CNC(=O)[C@H](CCCNC(=N)N)NC(=O)CCCCCCCCCCc1cccc(N2C(=O)C=CC2=O)c1)C(=O)N[C@@H](CC(=O)O)C(=O)N[C@@H](CCCNC(=N)N)C(=O)N[C@@H](C)C(=O)NCC(=O)NCC(=O)NCC(=O)NCC(=O)N[C@@H](CCCNC(=N)N)C(=O)NCC(=O)N[C@@H](CC(=O)O)C(=O)O [X34] (X74-RGADRAGGGGRGD-OH)
AUC(0-inf) [1]: 27700 ± 8150 ng·h/mL | MRT inf [1]: 49.6 ± 10.2 h | clearance [1]: 0.602 mL/min/kg | half-life [1]: 2061 ± 15.6 min | A570 nm/A630 nm (splenic lymphocytes; polypeptide dose 0.05 μM): 0.5469 ± 0.0655 | Inhibition rate (%) (splenic lymphocytes; polypeptide dose 0.05 μM): 19.03% | A570 nm/A630 nm (splenic lymphocytes; polypeptide dose 0.1 μM): 0.4573 ± 0.1104 | Inhibition rate (%) (splenic lymphocytes; polypeptide dose 0.1 μM): 32.29% | A570 nm/A630 nm (splenic lymphocytes; polypeptide dose 0.2 μM): 0.4431 ± 0.1192 | Inhibition rate (%) (splenic lymphocytes; polypeptide dose 0.2 μM): 34.39% | Swelling degree (mg) ([2]; dose 2 mg/kg): 3.86 ± 0.43** mg | Inhibition rate (%) ([2]; dose 2 mg/kg): 38.04% | Swelling degree (mg) ([2]; dose 4 mg/kg): 3.36 ± 0.53** mg | Inhibition rate (%) ([2]; dose 4 mg/kg): 46.07% | Swelling degree (mg) ([2]; dose 8 mg/kg): 3.2 ± 0.39** mg | Inhibition rate (%) ([2]; dose 8 mg/kg): 48.64% | Clinical score (adjuvant arthritis): 5.66 ± 1.09 | Joint swelling degree (adjuvant arthritis): 0.83 ± 0.17 mm | Left and right paw swelling degree (adjuvant arthritis): 3.84 ± 0.88 mm | Swelling degree 1 h ([3]; 2.0 mg/kg once a day for 3 d): 0.26 ± 0.18 mg | Swelling degree 3 h ([3]; 2.0 mg/kg once a day for 3 d): 0.38 ± 0.13 mg | Swelling degree 5 h ([3]; 2.0 mg/kg once a day for 3 d): 0.39 ± 0.11 mg | Swelling degree 7 h ([3]; 2.0 mg/kg once a day for 3 d): 0.35 ± 0.14 mg | Swelling degree 1 h ([3]; 4.0 mg/kg once a day for 3 d): 0.22 ± 0.18 mg | Swelling degree 3 h ([3]; 4.0 mg/kg once a day for 3 d): 0.38 ± 0.15 mg | Swelling degree 5 h ([3]; 4.0 mg/kg once a day for 3 d): 0.36 ± 0.16 mg | Swelling degree 7 h ([3]; 4.0 mg/kg once a day for 3 d): 0.34 ± 0.13 mg | Inhibition rate (corneal neovascularization) [4]: 48.36% | MVD (corneal microvessel density) [4]: 34.72 ± 6.051
